Tests used:
VPS34 = VPS34 (Homo sapiens (Human), UniProt Q8NEB9); test: Biochemical Assay for VPS34 (ADP-Glo kinase activity assay); settings: 25 nM VPS34, 1 mM ATP, 1-hour incubation at 37° C.; read-out: VPS34 (Inhibition of biochemical activity of VPS34, IC50)
Procedure: Activity of VPS34 kinase was determined using an ADP-Glo kinase activity assay (Promega Corp). Assays were conducted in 384-well plates (5 μL assay volume) using 25 nM VPS34 (ThermoFisher Scientific), […] PI:3PS Lipid Kinase Substrate (Promega Corp.), and 1 mM ATP in kinase buffer. Inhibition of VPS34 was measured by adding serial diluted test compound (final assay concentration of 0.1% DMSO) followed by a 1-hour incubation at 37° C. ADP-Glo reagent was then added ([…]) followed by a 40 min incubation at rt. Kinase detection reagent was then added ([…]) and followed by a 60 min incubation at rt. Luminescence was then detected. The RLU at each compound concentration of was converted to percent inhibition using controls (i.e., reaction with no test compound and reaction with a known inhibitor) and IC50 values were calculated by fitting a four-parameter sigmoidal curve to the data using GeneData Screener software.
VPS34 Protein Sequence (Full Length with GST Tag)

PI3K (p110α/p65α) = PI3K (p110α/p65α) (Homo sapiens (Human), UniProt P42336); test: Lipid kinase selectivity panel (Reaction Biology); type: biochemical; settings: 1 μM compound, single dose duplicates, 10 μM ATP; read-out: Percent inhibition relative to DMSO control, PI3K (p110α/p65α)
PI3K (p110α/p65α), sequence (P42336 whole entry, species assumed): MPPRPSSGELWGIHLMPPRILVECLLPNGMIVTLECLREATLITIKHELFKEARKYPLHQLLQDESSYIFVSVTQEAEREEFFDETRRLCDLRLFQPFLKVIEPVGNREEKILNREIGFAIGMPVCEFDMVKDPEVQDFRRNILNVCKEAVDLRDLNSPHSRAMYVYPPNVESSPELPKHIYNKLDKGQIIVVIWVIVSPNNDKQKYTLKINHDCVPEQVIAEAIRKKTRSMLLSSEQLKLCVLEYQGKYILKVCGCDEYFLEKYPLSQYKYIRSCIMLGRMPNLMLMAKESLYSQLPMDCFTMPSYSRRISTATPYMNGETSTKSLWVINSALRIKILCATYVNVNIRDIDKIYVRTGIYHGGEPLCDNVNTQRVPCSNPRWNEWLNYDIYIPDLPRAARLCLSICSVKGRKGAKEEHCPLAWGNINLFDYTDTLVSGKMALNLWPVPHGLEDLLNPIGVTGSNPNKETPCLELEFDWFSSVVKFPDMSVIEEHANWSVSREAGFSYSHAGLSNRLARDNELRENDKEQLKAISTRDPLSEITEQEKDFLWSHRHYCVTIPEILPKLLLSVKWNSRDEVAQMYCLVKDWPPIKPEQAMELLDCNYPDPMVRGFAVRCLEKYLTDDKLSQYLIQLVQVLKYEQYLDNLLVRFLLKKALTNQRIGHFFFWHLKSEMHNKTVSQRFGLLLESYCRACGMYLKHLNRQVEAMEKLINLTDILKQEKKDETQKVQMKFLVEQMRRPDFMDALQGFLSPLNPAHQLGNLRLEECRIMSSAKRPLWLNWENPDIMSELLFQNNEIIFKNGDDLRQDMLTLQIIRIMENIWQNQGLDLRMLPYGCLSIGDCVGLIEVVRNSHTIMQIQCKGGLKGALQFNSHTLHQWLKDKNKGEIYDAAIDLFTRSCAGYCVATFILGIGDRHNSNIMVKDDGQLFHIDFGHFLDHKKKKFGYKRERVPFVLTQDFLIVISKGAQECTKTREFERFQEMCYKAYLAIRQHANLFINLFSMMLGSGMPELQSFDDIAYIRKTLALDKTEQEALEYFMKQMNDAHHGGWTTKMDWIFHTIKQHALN
Procedure: (§1) The compounds of the present invention were tested in a standard lipid kinase selectivity panel: 16 other lipid kinases (Reaction Biology, Malvern, PA, USA), under conditions of non-disclosure, non-dissemination, and non-use. In brief, compounds (see Table 2) were tested at in single dose duplicates at 1 μM against lipid kinases, including PI3Kα, PI3Kβ, and PI3Kδ, and reactions were carried out at 10 μM ATP.

[1] = biological target: PI3K (p110α (H1047R)/p85α) (Homo sapiens (Human), UniProt P42336, H1047R); test: Lipid kinase selectivity panel (Reaction Biology); type: biochemical; settings: 1 μM compound, single dose duplicates, 10 μM ATP; read-out: Percent inhibition relative to DMSO control, PI3K (p110α (H1047R)/p85α)
PI3K (p110α (H1047R)/p85α), sequence (P42336 whole entry H1047R): as the sequence (P42336 whole entry, species assumed) above, with H1047R counted along it
PI3K (p110α (H1047R)/p85α), sequence (P27986 whole entry partner): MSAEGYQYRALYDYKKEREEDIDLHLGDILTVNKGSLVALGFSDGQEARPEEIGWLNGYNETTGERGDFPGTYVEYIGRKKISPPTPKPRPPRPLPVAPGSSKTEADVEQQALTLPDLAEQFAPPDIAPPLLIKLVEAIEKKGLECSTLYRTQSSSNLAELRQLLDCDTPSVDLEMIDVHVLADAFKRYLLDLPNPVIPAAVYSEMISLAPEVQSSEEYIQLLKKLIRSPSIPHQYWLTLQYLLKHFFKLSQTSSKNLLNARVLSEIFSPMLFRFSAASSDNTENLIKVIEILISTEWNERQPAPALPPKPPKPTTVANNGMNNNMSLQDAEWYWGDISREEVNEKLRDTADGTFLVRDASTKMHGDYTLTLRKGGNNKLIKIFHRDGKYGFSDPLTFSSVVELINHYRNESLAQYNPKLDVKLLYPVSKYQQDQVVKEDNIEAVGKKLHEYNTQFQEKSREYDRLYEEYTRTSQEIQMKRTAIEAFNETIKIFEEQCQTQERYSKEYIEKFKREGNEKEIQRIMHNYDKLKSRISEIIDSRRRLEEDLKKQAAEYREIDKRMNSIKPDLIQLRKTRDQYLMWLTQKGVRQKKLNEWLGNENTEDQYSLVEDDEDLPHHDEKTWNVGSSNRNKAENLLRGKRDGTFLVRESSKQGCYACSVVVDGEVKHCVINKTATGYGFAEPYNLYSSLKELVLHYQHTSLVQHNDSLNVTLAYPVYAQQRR
Procedure: as §1

PI3Kd (p110δ/p85α) = PI3Kd (p110δ/p85α) (Homo sapiens (Human), UniProt O00329); test: Lipid kinase selectivity panel (Reaction Biology); type: biochemical; settings: 1 μM compound, single dose duplicates, 10 μM ATP; read-out: Percent inhibition relative to DMSO control, PI3Kd (p110δ/p85α)
Procedure: as §1

[2] = biological target: PI3K (p110α (E542K)/p85α) (Homo sapiens (Human), UniProt P42336, E542K); test: Lipid kinase selectivity panel (Reaction Biology); type: biochemical; settings: 1 μM compound, single dose duplicates, 10 μM ATP; read-out: Percent inhibition relative to DMSO control, PI3K (p110α (E542K)/p85α)
PI3K (p110α (E542K)/p85α), sequence (P42336 whole entry E542K): as the sequence (P42336 whole entry, species assumed) above, with E542K counted along it
PI3K (p110α (E542K)/p85α), sequence (P27986 whole entry partner): as the sequence (P27986 whole entry partner) above
Procedure: as §1

[3] = biological target: PI3K (p110α (E545K)/p85α) (Homo sapiens (Human), UniProt P42336, E545K); test: Lipid kinase selectivity panel (Reaction Biology); type: biochemical; settings: 1 μM compound, single dose duplicates, 10 μM ATP; read-out: Percent inhibition relative to DMSO control, PI3K (p110α (E545K)/p85α)
PI3K (p110α (E545K)/p85α), sequence (P42336 whole entry E545K): as the sequence (P42336 whole entry, species assumed) above, with E545K counted along it
PI3K (p110α (E545K)/p85α), sequence (P27986 whole entry partner): as the sequence (P27986 whole entry partner) above
Procedure: as §1

PI3KC2α = PI3KC2α (Homo sapiens (Human), UniProt O00443); test: Lipid kinase selectivity panel (Reaction Biology); type: biochemical; settings: 1 μM compound, single dose duplicates, 10 μM ATP; read-out: Percent inhibition relative to DMSO control, PI3KC2α
Procedure: as §1

PI3Kg (p110γ) = PI3Kg (p110γ) (Homo sapiens (Human), UniProt P48736); test: Lipid kinase selectivity panel (Reaction Biology); type: biochemical; settings: 1 μM compound, single dose duplicates, 10 μM ATP; read-out: Percent inhibition relative to DMSO control, PI3Kg (p110γ)
Procedure: as §1

PI3Kb (p110β/p85α) = PI3Kb (p110β/p85α) (Homo sapiens (Human), UniProt P42338); test: Lipid kinase selectivity panel (Reaction Biology); type: biochemical; settings: 1 μM compound, single dose duplicates, 10 μM ATP; read-out: Percent inhibition relative to DMSO control, PI3Kb (p110β/p85α)
PI3Kb (p110β/p85α), sequence (P42338 whole entry, species assumed): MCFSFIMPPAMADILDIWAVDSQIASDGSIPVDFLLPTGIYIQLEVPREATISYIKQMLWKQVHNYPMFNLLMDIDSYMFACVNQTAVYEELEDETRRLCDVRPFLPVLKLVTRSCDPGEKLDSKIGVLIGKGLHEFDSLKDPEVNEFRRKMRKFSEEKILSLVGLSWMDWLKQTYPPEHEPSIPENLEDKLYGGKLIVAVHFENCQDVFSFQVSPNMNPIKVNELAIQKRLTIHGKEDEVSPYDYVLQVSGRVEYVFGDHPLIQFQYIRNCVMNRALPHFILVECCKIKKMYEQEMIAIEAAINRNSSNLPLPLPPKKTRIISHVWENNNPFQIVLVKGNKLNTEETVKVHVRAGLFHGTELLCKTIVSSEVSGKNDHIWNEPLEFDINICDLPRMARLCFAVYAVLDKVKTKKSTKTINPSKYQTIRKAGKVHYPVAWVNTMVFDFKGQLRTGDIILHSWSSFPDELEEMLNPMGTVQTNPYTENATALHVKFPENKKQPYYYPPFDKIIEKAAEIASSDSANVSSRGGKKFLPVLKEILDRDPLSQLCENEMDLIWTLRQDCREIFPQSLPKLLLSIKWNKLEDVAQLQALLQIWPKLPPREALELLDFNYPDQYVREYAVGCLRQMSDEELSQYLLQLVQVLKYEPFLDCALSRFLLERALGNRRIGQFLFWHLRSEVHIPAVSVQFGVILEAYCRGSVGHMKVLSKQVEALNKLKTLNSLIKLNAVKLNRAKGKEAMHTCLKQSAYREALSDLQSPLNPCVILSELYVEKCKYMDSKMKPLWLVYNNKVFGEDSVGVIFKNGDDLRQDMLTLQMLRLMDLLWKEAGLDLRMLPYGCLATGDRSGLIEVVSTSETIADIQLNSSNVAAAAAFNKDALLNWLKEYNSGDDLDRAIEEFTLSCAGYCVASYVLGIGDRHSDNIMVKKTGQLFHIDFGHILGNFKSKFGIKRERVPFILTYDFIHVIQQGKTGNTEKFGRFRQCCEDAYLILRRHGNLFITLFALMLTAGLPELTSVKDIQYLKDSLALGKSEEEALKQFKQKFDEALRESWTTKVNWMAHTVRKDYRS
PI3Kb (p110β/p85α), sequence (P27986 whole entry partner, species assumed): as the sequence (P27986 whole entry partner) above
Procedure: as §1

PI3Kα (p110α/p85α) = PI3Kα (p110α/p85α) (Homo sapiens (Human), UniProt P42336); test: Lipid kinase selectivity panel (Reaction Biology); type: biochemical; settings: 1 μM compound, single dose duplicates, 10 μM ATP; read-out: Percent inhibition relative to DMSO control, PI3Kα (p110α/p85α)
PI3Kα (p110α/p85α), sequence (P42336 whole entry, species assumed): as the sequence (P42336 whole entry, species assumed) above
PI3Kα (p110α/p85α), sequence (P27986 whole entry partner, species assumed): as the sequence (P27986 whole entry partner) above
Procedure: as §1

VPS34, sequence (Q8NEB9 other isoform, or with tags, fused parts or gaps): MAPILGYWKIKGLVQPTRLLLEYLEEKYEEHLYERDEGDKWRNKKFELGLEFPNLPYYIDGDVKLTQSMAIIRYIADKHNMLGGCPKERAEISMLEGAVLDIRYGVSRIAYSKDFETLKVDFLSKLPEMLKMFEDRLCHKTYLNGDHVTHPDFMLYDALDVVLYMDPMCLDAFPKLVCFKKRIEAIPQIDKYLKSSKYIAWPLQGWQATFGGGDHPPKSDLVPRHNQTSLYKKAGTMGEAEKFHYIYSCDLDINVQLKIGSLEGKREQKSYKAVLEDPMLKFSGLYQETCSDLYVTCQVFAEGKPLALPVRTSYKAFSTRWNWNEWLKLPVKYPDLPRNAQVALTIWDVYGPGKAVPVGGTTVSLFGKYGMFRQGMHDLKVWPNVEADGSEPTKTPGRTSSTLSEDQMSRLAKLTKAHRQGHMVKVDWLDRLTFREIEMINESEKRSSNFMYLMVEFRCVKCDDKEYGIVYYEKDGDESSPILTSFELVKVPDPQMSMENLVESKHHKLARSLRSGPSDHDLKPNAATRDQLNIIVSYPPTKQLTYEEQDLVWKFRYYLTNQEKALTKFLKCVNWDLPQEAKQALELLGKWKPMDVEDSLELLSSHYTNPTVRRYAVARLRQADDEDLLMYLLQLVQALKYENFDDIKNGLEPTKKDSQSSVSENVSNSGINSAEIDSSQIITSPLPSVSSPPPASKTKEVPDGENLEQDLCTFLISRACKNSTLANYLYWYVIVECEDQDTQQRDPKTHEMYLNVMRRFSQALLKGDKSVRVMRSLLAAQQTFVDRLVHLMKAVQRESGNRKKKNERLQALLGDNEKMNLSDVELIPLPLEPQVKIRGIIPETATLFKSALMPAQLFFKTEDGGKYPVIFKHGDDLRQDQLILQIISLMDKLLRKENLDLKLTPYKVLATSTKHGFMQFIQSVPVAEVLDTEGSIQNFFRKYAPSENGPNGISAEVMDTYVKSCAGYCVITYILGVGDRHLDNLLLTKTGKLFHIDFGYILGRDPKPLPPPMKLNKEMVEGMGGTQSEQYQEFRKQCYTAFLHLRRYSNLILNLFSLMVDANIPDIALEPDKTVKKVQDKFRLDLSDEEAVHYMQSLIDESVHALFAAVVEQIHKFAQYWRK

Row | IC50 (VPS34) | inhibition at 1 µM (PI3K (p110α/p65α)) | inhibition at 1 µM [1] | inhibition at 1 µM (PI3Kd (p110δ/p85α)) | inhibition at 1 µM [2] | inhibition at 1 µM [3] | inhibition at 1 µM (PI3KC2α) | inhibition at 1 µM (PI3Kg (p110γ)) | inhibition at 1 µM (PI3Kb (p110β/p85α)) | inhibition at 1 µM (PI3Kα (p110α/p85α)) | SMILES
1 | ≤ 100 nM | -17% | 6% | 14% | -3% | -5% | -21% | 7% | -10% | -15% | Cc1cnc(NC(=O)C2CC2)cc1-c1cc(N2CCCC[C@@H]2C(F)(F)F)[nH]c(=O)c1 [Example 17]
2 | 500 to 1000 nM | -26% | 19% | -2% | 4% | 3% | -3% | 5% | -14% | -2% | COC(=O)Nc1ncc(C)c(-c2cc(-c3cccnc3C(F)(F)F)[nH]c(=O)c2)n1 [Example 6]
3 | 100 to 500 nM | -6% | -17% | -9% | -4% | -2% | 2% | -7% | -9% | -1% | CNCC(=O)Nc1cc(-c2cc(N3CCCC[C@@H]3C(F)(F)F)[nH]c(=O)c2)c(C)cn1 [Example 24]
4 | 100 to 500 nM | -4% | -4% | 4% | -4% | -1% | 2% | -8% | -3% | 3% | Cc1cnc(NC(=O)CC2CNCC2(F)F)cc1-c1cc(N2CCCC[C@@H]2C(F)(F)F)[nH]c(=O)c1 (stereo partly drawn) [Example 22]
5 | 100 to 500 nM | -12% | 10% | -5% | -11% | -2% | -26% | 16% | -4% | -19% | COC(=O)Nc1cc(-c2cc(-c3cccnc3C(F)(F)F)[nH]c(=O)c2)c(N)cn1 [Example 15]
6 | 100 to 500 nM | -24% | 14% | -2% | -2% | -8% | -11% | 29% | -5% | -24% | O=C(Nc1cc(-c2cc(N3CCCC[C@@H]3C(F)(F)F)[nH]c(=O)c2)c(Cl)cn1)C1CC1 [Example 16]
7 | 100 to 500 nM | -2% | 16% | 13% | -1% | 2% | -18% | -13% | -3% | -5% | COC(=O)Nc1cc(-c2cc(N3CCCC[C@@H]3C(F)(F)F)[nH]c(=O)c2)c(CF)cn1 [Example 18]
8 | ≤ 100 nM | -7% | 0% | -2% | -5% | 3% | -1% | 11% | -9% | -3% | COC(=O)Nc1cc(-c2cc(N3CCCC[C@@H]3C(F)(F)F)[nH]c(=O)c2)c(N)cn1 [Example 14]
9 | 100 to 500 nM |  |  |  |  |  |  |  |  |  | Cc1cnc(NC(=O)CC2CN(C)C2)cc1-c1cc(N2CCCC[C@@H]2C(F)(F)F)[nH]c(=O)c1 [Example 3, (R)-N-(5-methyl-2′-oxo-6′-(2-(trifluoromethyl)piperidin-1-yl)-1′,2′-dihydro-[4,4′-bipyridin]-2-yl)-2-(1-methylazetidin-3-yl)acetamide]
10 | ≤ 100 nM |  |  |  |  |  |  |  |  |  | COC(=O)Nc1cc(-c2cc(N3CCOC[C@@H]3C(F)(F)F)[nH]c(=O)c2)c(C)cn1 [Example 37]
11 | 1000 to 10000 nM |  |  |  |  |  |  |  |  |  | COC(=O)Nc1cc(-c2cc(-c3cccnc3C(F)(F)F)[nH]c(=O)c2)c(Cl)cn1 [Example 51]
12 | 1000 to 10000 nM |  |  |  |  |  |  |  |  |  | COc1ccc(C(=O)N2CCN(c3cc(-c4cc(NC(=O)C5CC5)ncc4C)cc(=O)[nH]3)[C@@H](C)C2)cc1 [Example 92]
